Test results as given in the kinase profiling compilation of Christmann-Franck et al. (2016).

Key:
Assay in all cases: radiometric filter-binding kinase assay, Kinase HotSpot
Conditions in all cases: compound 0.5 µM; ATP 10 µM
SRMS (human) = SRMS (human) (UniProt Q9H3Y6)
MARK1 (human) = MARK1 (human) (UniProt Q9P0L2)
CDK9 CCNK (human) = CDK9 CCNK (human) (UniProt O75909+P50750)
PRKACA (human) = PRKACA (human) (UniProt P17612)
ITK (human) = ITK (human) (UniProt Q08881)
ACVR1B (human) = ACVR1B (human) (UniProt P36896)
PRKD2 (human) = PRKD2 (human) (UniProt Q9BZL6)
DSTYK (human) = DSTYK (human) (UniProt Q6XUX3)
Chain of DSTYK (human) (Q6XUX3 whole entry, looked up): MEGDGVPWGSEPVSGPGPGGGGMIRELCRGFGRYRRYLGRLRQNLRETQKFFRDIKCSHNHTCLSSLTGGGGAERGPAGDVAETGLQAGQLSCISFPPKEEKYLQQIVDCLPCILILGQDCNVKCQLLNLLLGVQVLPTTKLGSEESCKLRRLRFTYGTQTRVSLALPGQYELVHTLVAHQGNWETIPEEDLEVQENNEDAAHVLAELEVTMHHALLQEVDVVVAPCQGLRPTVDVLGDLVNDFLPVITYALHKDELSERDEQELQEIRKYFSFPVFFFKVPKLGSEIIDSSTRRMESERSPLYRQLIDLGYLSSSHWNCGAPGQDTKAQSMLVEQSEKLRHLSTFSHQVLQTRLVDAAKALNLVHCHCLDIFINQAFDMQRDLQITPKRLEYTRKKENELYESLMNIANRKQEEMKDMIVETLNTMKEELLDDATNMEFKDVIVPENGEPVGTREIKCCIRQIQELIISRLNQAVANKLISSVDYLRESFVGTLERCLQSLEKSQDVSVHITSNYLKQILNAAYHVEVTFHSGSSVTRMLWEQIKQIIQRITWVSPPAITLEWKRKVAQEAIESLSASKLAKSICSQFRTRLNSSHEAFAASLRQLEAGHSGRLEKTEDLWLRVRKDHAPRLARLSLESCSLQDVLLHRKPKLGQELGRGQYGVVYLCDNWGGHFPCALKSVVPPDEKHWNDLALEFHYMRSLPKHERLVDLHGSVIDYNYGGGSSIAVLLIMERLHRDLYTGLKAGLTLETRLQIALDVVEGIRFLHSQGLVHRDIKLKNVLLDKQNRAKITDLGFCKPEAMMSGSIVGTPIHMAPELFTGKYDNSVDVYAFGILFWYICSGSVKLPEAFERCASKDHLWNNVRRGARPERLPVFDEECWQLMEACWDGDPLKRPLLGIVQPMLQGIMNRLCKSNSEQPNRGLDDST

HCK (human) = HCK (human) (UniProt P08631)
[1] = target: JAK1 JH1 catalytic (human) (UniProt P23458)
STK11 (human) = STK11 (human) (UniProt Q15831)
Chain of STK11 (human) (Q15831 whole entry, looked up): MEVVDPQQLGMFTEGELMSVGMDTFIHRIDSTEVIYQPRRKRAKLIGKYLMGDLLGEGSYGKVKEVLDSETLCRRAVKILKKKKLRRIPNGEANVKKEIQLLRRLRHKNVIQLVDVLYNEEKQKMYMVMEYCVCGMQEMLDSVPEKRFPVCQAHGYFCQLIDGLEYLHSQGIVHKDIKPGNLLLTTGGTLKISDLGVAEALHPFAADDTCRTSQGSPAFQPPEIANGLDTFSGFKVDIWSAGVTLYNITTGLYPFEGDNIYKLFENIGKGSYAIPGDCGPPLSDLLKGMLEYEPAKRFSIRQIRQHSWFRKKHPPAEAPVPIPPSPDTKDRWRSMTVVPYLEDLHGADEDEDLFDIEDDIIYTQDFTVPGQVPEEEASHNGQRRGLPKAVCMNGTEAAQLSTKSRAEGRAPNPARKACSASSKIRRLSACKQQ

DAPK3 (human) = DAPK3 (human) (UniProt O43293)
LRRK2 (human) = LRRK2 (human) (UniProt Q5S007)
RAF1 (human) = RAF1 (human) (UniProt P04049)
CLK3 (human) = CLK3 (human) (UniProt P49761)
DYRK3 (human) = DYRK3 (human) (UniProt O43781)
TTK (human) = TTK (human) (UniProt P33981)
FGFR4 (human) = FGFR4 (human) (UniProt P22455)
Chain of FGFR4 (human) (P22455 whole entry, looked up): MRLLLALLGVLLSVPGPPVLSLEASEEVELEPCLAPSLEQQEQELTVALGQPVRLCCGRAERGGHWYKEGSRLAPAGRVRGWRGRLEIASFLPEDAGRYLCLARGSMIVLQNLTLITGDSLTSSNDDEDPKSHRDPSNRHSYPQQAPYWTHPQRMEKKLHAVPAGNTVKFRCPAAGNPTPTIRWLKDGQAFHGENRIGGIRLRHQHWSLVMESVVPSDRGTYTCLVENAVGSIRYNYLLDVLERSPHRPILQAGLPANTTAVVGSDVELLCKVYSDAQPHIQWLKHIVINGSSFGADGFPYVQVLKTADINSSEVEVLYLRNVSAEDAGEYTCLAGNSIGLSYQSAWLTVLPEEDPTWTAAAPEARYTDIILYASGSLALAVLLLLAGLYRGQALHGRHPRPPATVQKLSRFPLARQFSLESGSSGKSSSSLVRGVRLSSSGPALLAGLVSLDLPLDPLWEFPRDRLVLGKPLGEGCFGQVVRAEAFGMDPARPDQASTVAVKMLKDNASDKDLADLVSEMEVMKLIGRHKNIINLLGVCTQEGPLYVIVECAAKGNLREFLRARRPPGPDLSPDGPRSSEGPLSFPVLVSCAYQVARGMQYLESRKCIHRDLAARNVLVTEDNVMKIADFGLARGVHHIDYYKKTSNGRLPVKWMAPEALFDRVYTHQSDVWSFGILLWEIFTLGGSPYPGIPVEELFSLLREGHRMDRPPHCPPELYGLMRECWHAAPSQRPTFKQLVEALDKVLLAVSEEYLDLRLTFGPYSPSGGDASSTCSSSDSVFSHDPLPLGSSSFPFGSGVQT

SYK (human) = SYK (human) (UniProt P43405)
MST4 (human) = MST4 (human) (UniProt Q9P289)
Chain of MST4 (human) (Q9P289 whole entry, looked up): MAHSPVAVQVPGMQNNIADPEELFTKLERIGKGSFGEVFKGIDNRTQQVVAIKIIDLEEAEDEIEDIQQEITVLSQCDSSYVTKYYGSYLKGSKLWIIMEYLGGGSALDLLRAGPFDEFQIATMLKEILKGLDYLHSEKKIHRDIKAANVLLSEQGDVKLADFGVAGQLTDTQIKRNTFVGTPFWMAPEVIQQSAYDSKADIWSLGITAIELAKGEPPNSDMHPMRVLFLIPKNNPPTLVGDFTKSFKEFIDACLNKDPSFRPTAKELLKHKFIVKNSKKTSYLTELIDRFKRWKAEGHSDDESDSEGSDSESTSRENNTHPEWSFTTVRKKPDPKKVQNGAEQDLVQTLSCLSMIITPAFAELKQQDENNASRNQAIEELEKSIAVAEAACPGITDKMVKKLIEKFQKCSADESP

MLTK (human) = MLTK (human) (UniProt Q9NYL2)
MAP3K9 (human) = MAP3K9 (human) (UniProt P80192)
Chain of MAP3K9 (human) (P80192 whole entry, looked up): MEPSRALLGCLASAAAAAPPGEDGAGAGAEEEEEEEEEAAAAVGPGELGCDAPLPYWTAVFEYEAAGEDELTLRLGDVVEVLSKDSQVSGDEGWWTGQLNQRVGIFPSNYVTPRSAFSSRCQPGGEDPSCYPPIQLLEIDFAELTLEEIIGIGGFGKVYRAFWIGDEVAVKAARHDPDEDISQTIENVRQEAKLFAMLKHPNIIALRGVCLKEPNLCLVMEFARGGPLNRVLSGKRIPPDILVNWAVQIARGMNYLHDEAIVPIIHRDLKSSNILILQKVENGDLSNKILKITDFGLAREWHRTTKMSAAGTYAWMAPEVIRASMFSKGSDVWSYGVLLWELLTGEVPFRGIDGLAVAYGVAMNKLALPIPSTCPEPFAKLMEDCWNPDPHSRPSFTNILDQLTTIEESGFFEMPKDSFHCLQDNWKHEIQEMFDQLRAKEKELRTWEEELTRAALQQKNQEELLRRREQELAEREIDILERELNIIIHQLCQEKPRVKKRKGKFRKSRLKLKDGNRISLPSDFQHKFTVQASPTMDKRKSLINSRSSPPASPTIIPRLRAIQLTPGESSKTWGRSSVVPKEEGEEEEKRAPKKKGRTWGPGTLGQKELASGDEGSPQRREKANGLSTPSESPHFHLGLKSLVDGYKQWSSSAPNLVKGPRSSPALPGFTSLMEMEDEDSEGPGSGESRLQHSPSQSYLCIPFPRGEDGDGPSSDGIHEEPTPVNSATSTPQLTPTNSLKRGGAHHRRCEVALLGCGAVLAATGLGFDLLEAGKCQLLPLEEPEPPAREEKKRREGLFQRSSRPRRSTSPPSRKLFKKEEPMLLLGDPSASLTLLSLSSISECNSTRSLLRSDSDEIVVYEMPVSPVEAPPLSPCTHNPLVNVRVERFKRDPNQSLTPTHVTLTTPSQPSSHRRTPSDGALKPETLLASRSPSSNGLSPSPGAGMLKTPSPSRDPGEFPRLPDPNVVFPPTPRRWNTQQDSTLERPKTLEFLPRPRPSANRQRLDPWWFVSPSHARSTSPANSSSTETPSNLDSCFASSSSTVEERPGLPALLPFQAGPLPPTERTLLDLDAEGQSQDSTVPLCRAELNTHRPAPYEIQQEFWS

AURKB (human) = AURKB (human) (UniProt Q96GD4)
CDK5 CDK5R1 p35 (human) = CDK5 CDK5R1 p35 (human) (UniProt Q00535+Q15078)
PHKG1 (human) = PHKG1 (human) (UniProt Q16816)
PTK2B (human) = PTK2B (human) (UniProt Q14289)
INSRR (human) = INSRR (human) (UniProt P14616)
PRKD1 (human) = PRKD1 (human) (UniProt Q15139)
CHUK (human) = CHUK (human) (UniProt O15111)
CAMKK2 (human) = CAMKK2 (human) (UniProt Q96RR4)
CSNK1G2 (human) = CSNK1G2 (human) (UniProt P78368)
Chain of CSNK1G2 (human) (P78368 whole entry, looked up): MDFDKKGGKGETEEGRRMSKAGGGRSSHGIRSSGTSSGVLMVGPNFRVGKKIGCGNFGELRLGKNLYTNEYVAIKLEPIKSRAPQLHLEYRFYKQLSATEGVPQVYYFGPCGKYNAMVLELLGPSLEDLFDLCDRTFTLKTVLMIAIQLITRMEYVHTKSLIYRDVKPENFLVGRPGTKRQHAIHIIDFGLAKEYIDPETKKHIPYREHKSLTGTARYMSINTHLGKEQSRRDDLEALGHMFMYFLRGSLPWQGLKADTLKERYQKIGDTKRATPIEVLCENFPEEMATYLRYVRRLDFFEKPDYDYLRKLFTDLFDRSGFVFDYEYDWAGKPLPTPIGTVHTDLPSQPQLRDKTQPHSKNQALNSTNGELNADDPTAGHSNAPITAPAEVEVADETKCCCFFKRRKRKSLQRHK

DYRK1A (human) = DYRK1A (human) (UniProt Q13627)
CDK6 CCND3 (human) = CDK6 CCND3 (human) (UniProt P30281+Q00534)
Chain of CDK6 CCND3 (human) (P30281 whole entry, looked up): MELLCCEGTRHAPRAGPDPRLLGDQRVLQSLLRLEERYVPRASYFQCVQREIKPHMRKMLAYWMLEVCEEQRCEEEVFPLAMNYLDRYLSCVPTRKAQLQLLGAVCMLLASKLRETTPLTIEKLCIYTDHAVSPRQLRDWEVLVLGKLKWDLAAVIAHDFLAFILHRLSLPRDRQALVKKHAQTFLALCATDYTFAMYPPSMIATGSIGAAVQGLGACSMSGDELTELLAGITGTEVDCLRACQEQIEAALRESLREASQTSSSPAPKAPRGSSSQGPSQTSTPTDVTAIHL
Chain of CDK6 CCND3 (human) (Q00534 whole entry, looked up): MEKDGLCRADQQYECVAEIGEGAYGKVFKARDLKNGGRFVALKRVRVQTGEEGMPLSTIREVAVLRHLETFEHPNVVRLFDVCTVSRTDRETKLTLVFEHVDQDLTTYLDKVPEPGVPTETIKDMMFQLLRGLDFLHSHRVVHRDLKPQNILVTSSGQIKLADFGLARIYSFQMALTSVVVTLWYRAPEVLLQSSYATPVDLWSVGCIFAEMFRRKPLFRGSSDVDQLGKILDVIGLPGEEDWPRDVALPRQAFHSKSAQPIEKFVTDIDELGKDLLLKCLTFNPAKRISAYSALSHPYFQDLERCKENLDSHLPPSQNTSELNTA

DYRK4 (human) = DYRK4 (human) (UniProt Q9NR20)
SRPK2 (human) = SRPK2 (human) (UniProt P78362)
CSK (human) = CSK (human) (UniProt P41240)
TAOK3 (human) = TAOK3 (human) (UniProt Q9H2K8)
CSNK2A1 (human) = CSNK2A1 (human) (UniProt P68400)
ROCK1 (human) = ROCK1 (human) (UniProt Q13464)
GRK5 (human) = GRK5 (human) (UniProt P34947)
PKN2 (human) = PKN2 (human) (UniProt Q16513)
STK39 (human) = STK39 (human) (UniProt Q9UEW8)

## CSc1nc(-c2ccc(F)cc2)c(-c2ccnc(NC(C)c3ccccc3)c2)[nH]1 (configuration not stated)
SRMS (human)
  residual activity: 104%
MARK1 (human)
  residual activity: 95.3%
CDK9 CCNK (human)
  residual activity: 91.1%
PRKACA (human)
  residual activity: 96%
ITK (human)
  residual activity: 91.6%
ACVR1B (human)
  residual activity: 95.9%
PRKD2 (human)
  residual activity: 86.4%
DSTYK (human)
  residual activity: 102%
HCK (human)
  residual activity: 83.5%
[1]
  residual activity: 104%
STK11 (human)
  residual activity: 95.4%
DAPK3 (human)
  residual activity: 94.3%
LRRK2 (human)
  residual activity: 100%
RAF1 (human)
  residual activity: 88.9%
CLK3 (human)
  residual activity: 85.4%
DYRK3 (human)
  residual activity: 94.2%
TTK (human)
  residual activity: 102%
FGFR4 (human)
  residual activity: 102%
SYK (human)
  residual activity: 96.8%
MST4 (human)
  residual activity: 101%
MLTK (human)
  residual activity: 85.7%
MAP3K9 (human)
  residual activity: 101%
AURKB (human)
  residual activity: 98.4%
CDK5 CDK5R1 p35 (human)
  residual activity: 101%
PHKG1 (human)
  residual activity: 91.8%
PTK2B (human)
  residual activity: 100%
INSRR (human)
  residual activity: 98.9%
PRKD1 (human)
  residual activity: 90.1%
CHUK (human)
  residual activity: 98.4%
CAMKK2 (human)
  residual activity: 84%
CSNK1G2 (human)
  residual activity: 75.6%
DYRK1A (human)
  residual activity: 97.9%
CDK6 CCND3 (human)
  residual activity: 98.3%
DYRK4 (human)
  residual activity: 91.4%
SRPK2 (human)
  residual activity: 94.4%
CSK (human)
  residual activity: 82.4%
TAOK3 (human)
  residual activity: 91.7%
CSNK2A1 (human)
  residual activity: 100%
ROCK1 (human)
  residual activity: 91.7%
GRK5 (human)
  residual activity: 103%
PKN2 (human)
  residual activity: 76.1%
STK39 (human)
  residual activity: 95%

## CCCNC(=O)Nc1ccc(Oc2ncnc3cc(OC)c(OC)cc23)cc1Cl
SRMS (human)
  residual activity: 105%
MARK1 (human)
  residual activity: 97.6%
CDK9 CCNK (human)
  residual activity: 103%
PRKACA (human)
  residual activity: 99.7%
ITK (human)
  residual activity: 96.9%
ACVR1B (human)
  residual activity: 99.6%
PRKD2 (human)
  residual activity: 94.3%
DSTYK (human)
  residual activity: 88.6%
HCK (human)
  residual activity: 88.7%
[1]
  residual activity: 99.2%
STK11 (human)
  residual activity: 87.3%
DAPK3 (human)
  residual activity: 88.8%
LRRK2 (human)
  residual activity: 94.1%
RAF1 (human)
  residual activity: 85.4%
CLK3 (human)
  residual activity: 98.8%
DYRK3 (human)
  residual activity: 99.7%
TTK (human)
  residual activity: 88.6%
FGFR4 (human)
  residual activity: 73.9%
SYK (human)
  residual activity: 97.5%
MST4 (human)
  residual activity: 86.9%
MLTK (human)
  residual activity: 103%
MAP3K9 (human)
  residual activity: 88.9%
AURKB (human)
  residual activity: 37%
CDK5 CDK5R1 p35 (human)
  residual activity: 98%
PHKG1 (human)
  residual activity: 91.3%
PTK2B (human)
  residual activity: 88%
INSRR (human)
  residual activity: 98.4%
PRKD1 (human)
  residual activity: 92.9%
CHUK (human)
  residual activity: 84.9%
CAMKK2 (human)
  residual activity: 91.5%
CSNK1G2 (human)
  residual activity: 84.8%
DYRK1A (human)
  residual activity: 96.9%
CDK6 CCND3 (human)
  residual activity: 89.5%
DYRK4 (human)
  residual activity: 106%
SRPK2 (human)
  residual activity: 91.1%
CSK (human)
  residual activity: 100%
TAOK3 (human)
  residual activity: 95.9%
CSNK2A1 (human)
  residual activity: 105%
ROCK1 (human)
  residual activity: 99.7%
GRK5 (human)
  residual activity: 105%
PKN2 (human)
  residual activity: 99.2%
STK39 (human)
  residual activity: 88%

## COc1ccc(-c2cnc3c(-c4ccsc4)cnn3c2)cc1
SRMS (human)
  residual activity: 97.4%
MARK1 (human)
  residual activity: 98.9%
CDK9 CCNK (human)
  residual activity: 76.9%
PRKACA (human)
  residual activity: 96.1%
ITK (human)
  residual activity: 95.2%
ACVR1B (human)
  residual activity: 100%
PRKD2 (human)
  residual activity: 97.7%
DSTYK (human)
  residual activity: 97.6%
HCK (human)
  residual activity: 81.9%
[1]
  residual activity: 87%
STK11 (human)
  residual activity: 95.9%
DAPK3 (human)
  residual activity: 81.9%
LRRK2 (human)
  residual activity: 68.1%
RAF1 (human)
  residual activity: 95.5%
CLK3 (human)
  residual activity: 100%
DYRK3 (human)
  residual activity: 89.9%
TTK (human)
  residual activity: 94.2%
FGFR4 (human)
  residual activity: 89.2%
SYK (human)
  residual activity: 101%
MST4 (human)
  residual activity: 95.7%
MLTK (human)
  residual activity: 84.1%
MAP3K9 (human)
  residual activity: 65.6%
AURKB (human)
  residual activity: 50.8%
CDK5 CDK5R1 p35 (human)
  residual activity: 64.5%
PHKG1 (human)
  residual activity: 73.2%
PTK2B (human)
  residual activity: 81.8%
INSRR (human)
  residual activity: 98.7%
PRKD1 (human)
  residual activity: 95.1%
CHUK (human)
  residual activity: 94.5%
CAMKK2 (human)
  residual activity: 72.9%
CSNK1G2 (human)
  residual activity: 82.3%
DYRK1A (human)
  residual activity: 69.7%
CDK6 CCND3 (human)
  residual activity: 33.4%
DYRK4 (human)
  residual activity: 129%
SRPK2 (human)
  residual activity: 94.1%
CSK (human)
  residual activity: 95.3%
TAOK3 (human)
  residual activity: 96.9%
CSNK2A1 (human)
  residual activity: 101%
ROCK1 (human)
  residual activity: 95.7%
GRK5 (human)
  residual activity: 97.4%
PKN2 (human)
  residual activity: 107%
STK39 (human)
  residual activity: 95.1%

## O=C(NC(NC(=S)Nc1ccc(F)c([N+](=O)[O-])c1)C(Cl)(Cl)Cl)C(c1ccccc1)c1ccccc1 (configuration not stated)
SRMS (human)
  residual activity: 96.9%
MARK1 (human)
  residual activity: 101%
CDK9 CCNK (human)
  residual activity: 110%
PRKACA (human)
  residual activity: 102%
ITK (human)
  residual activity: 94.9%
ACVR1B (human)
  residual activity: 106%
PRKD2 (human)
  residual activity: 107%
DSTYK (human)
  residual activity: 100%
HCK (human)
  residual activity: 107%
[1]
  residual activity: 106%
STK11 (human)
  residual activity: 94.2%
DAPK3 (human)
  residual activity: 103%
LRRK2 (human)
  residual activity: 99.3%
RAF1 (human)
  residual activity: 95.3%
CLK3 (human)
  residual activity: 124%
DYRK3 (human)
  residual activity: 100%
TTK (human)
  residual activity: 96.9%
FGFR4 (human)
  residual activity: 100%
SYK (human)
  residual activity: 104%
MST4 (human)
  residual activity: 89.3%
MLTK (human)
  residual activity: 98.6%
MAP3K9 (human)
  residual activity: 94%
AURKB (human)
  residual activity: 95.3%
PHKG1 (human)
  residual activity: 104%
PTK2B (human)
  residual activity: 102%
INSRR (human)
  residual activity: 93.7%
PRKD1 (human)
  residual activity: 96.9%
CHUK (human)
  residual activity: 91.5%
CAMKK2 (human)
  residual activity: 126%
CSNK1G2 (human)
  residual activity: 98.3%
DYRK1A (human)
  residual activity: 99.8%
CDK6 CCND3 (human)
  residual activity: 99.3%
DYRK4 (human)
  residual activity: 104%
SRPK2 (human)
  residual activity: 103%
CSK (human)
  residual activity: 99.3%
TAOK3 (human)
  residual activity: 121%
CSNK2A1 (human)
  residual activity: 95.4%
ROCK1 (human)
  residual activity: 99.8%
GRK5 (human)
  residual activity: 105%
PKN2 (human)
  residual activity: 88.1%
STK39 (human)
  residual activity: 77%
